What follows are molecules tested against T1, wild-type human ALK cytoplasmic domain (amino acids 1058-1620) (Homo sapiens, UniProt Q9UM73) (assay: ALK Inhibition in Enzyme Assay (Lance TR-FRET)). Settings: 2 nM enzyme, ATP at 40 μM (Km apparent), 90 minutes, mean of three replicates; read-out: ALK IC50.
T1 construct: The cytoplasmic domain (amino acids 1058-1620) of wild-type human ALK; GST (N); made in house; host or cells: SF9 insect cells
Type: biochemical
Description: ALK Inhibition in Enzyme Assay
Kinase activity of the purified protein was assessed using a Lance® TR-FRET assay. […] The reaction was allowed to proceed for 90 minutes at room temperature and was then terminated with 20 mM EDTA in 50 mM Tris (pH 7.5), 100 mM NaCl, 0.05% BSA, and 0.1% Tween-20. Phosphorylation of the peptide substrate was detected using the Lance® detection reagents streptavidin-allophycocyanin (SA-APC) and Eu-W1024 anti-phosphotyrosine antibody (PT66) from Perkin Elmer Life Sciences (Waltham, Mass.). The plates were read on a RUBY star plate reader (BMG LABTECH, Cary, N.C.) with an excitation wavelength of 320 nm.

T1 sequence (Q9UM73 1058-1620): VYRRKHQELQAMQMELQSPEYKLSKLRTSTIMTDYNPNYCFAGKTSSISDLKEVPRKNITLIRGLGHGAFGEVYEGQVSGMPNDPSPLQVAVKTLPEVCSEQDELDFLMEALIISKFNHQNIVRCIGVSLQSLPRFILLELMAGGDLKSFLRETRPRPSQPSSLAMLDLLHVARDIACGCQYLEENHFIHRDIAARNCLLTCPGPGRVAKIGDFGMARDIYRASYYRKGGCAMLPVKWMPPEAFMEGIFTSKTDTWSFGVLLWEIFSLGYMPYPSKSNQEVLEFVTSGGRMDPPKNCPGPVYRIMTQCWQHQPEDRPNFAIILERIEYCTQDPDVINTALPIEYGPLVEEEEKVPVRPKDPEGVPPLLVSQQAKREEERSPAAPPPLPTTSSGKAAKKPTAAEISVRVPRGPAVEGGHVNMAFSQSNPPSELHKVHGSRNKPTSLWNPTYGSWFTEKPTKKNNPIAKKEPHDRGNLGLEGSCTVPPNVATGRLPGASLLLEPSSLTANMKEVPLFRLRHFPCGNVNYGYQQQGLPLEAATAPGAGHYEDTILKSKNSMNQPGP

Row | SMILES | IC50 [nM]
1 | COc1cc(Nc2nccc(N3CCC[C@H](C(=O)NC4CCc5ccccc54)C3)n2)cc(OC)c1OC (stereo partly drawn) [Example 39, (S)-N-(2,3-dihydro-1H-inden-1-yl)-1-(2-((3,4,5-trimethoxyphenyl)amino)-4-pyrimidinyl)-3-pipcridinecarboxamide] | 1000 to 5000
2 | COc1cc(Nc2nccc(N3CCC[C@H](C(=O)NCc4cccc(-c5ccc(Cl)cc5)c4)C3)n2)cc(OC)c1OC [Example 106, (S)-N-((4′-chloro-3-biphenylyl)methyl)-1-(2-((3,4,5-trimethoxyphenyl)amino)-4-pyrimidinyl)-3-piperidinecarboxamide] | < 50
3 | COc1cc(Nc2nccc(N3CCC[C@H](C(=O)NCc4cccc(Oc5ccc(Cl)cc5)c4)C3)n2)cc(OC)c1OC [Example 105, (S)-N-(3-(4-chlorophenoxy)benzyl)-1-(2-((3,4,5-trimethoxyphenyl)amino)-4-pyrimidinyl)-3-piperidinecarboxamide] | 1000 to 5000
4 | COc1cc(Nc2nccc(N3CCC[C@H](C(=O)NCc4ccc(C(F)(F)F)cc4)C3)n2)cc(OC)c1OC [Example 34, (S)-N-(4-(trifluoromethyl)benzyl)-1-(2-((3,4,5-trimethoxyphenyl)amino)-4-pyrimidinyl)-3-piperidinecarboxamide] | 50 to 100
5 | COc1cc(Nc2nccc(N3CCC[C@H](C(=O)NCc4cccc5ccccc45)C3)n2)cc(OC)c1OC [Example 31, (S)-N-(1-naphthalenylmethyl)-1-(2-((3,4,5-trimethoxyphenyl)amino)-4-pyrimidinyl)-3-piperidinecarboxamide] | 1000 to 5000
6 | COc1cc(Nc2nccc(N3CCC[C@H](C(=O)NC(C)(C)c4ccccc4)C3)n2)cc(OC)c1OC [Example 54, (S)-N-(1-methyl-1-phenylethyl)-1-(2-((3,4,5-trimethoxyphenyl)amino)-4-pyrimidinyl)-3-piperidinecarboxamide] | 1000 to 5000
7 | COc1cc(Nc2nccc(N3CCC[C@H](C(=O)NCc4ccc5[nH]c(C)cc5c4)C3)n2)cc(OC)c1OC [Example 76, (S)-N-((2-methyl-1H-indol-5-yl)methyl)-1-(2-((3,4,5-trimethoxyphenyl)amino)-4-pyrimidinyl)-3-piperidinecarboxamide] | 50 to 100
8 | O=C(NCc1ccc(OC(F)(F)F)cc1)[C@H]1CCCN(c2ccnc(Nc3ccc(N4CCOCC4)cc3)n2)C1 [Example 3, (S)-1-(2-(4-Morpholinophenylamino)Pyrimidin-4-Yl)-N-(4-(Trifluoromethoxy)Benzyl)Piperidine-3-Carboxamide] | 100 to 1000

Further lines, results first:

Row | IC50 [nM] | SMILES
9 | 1000 to 5000 | Cc1ccc(CNC(=O)[C@H]2CCCN(c3ccnc(Nc4cnc5ccccc5c4)n3)C2)cc1 [Example 130, (3S)-N-(4-methylbenzyl)-1-(2-(3-quinolinylamino)-4-pyrimidinyl)-3-piperidinecarboxamide]
10 | 50 to 100 | Cc1ccc(CNC(=O)[C@H]2CCCN(c3ccnc(Nc4cc(OC[C@H]5CCCN5C)cc(C(F)(F)F)c4)n3)C2)cc1 [Example 190, (S)-N-(4-methylbenzyl)-1-(2-(3-(((R)-1-methylpyrrolidin-2-yl)methoxy)-5-(trifluoromethyl)phenylamino)pyrimidin-4-yl)piperidine-3-carboxamide]
11 | 100 to 1000 | Cc1ccc(CNC(=O)[C@H]2CCCN(c3ccnc(Nc4cccc(Cn5nccn5)c4)n3)C2)cc1 [Example 143, (3S)-N-(4-methylbenzyl)-1-(2-((3-(2H-1,2,3-triazol-2-ylmethyl)phenyl)amino)-4-pyrimidinyl)-3-piperidinecarboxamide]
12 | 100 to 1000 | Cc1ccc(CNC(=O)[C@H]2CCCN(c3ccnc(Nc4cccc5c4CNC5=O)n3)C2)cc1 [Example 141, (3S)-N-(4-methylbenzyl)-1-(2-((1-oxo-2,3-dihydro-1H-isoindol-4-yl)amino)-4-pyrimidinyl)-3-piperidinecarboxamide]
13 | 100 to 1000 | Cc1ccc(CNC(=O)[C@H]2CCCN(c3ccnc(Nc4ccc(N5CCN(C)CC5)cc4)n3)C2)cc1 [Example 161, (3S)-N-(4-methylbenzyl)-1-(2-((4-(4-methyl-1-piperazinyl)phenyl)ami-no)-4-pyrimidinyl)-3-piperidinecarboxamide]

Reference: patent US8716281B2, “Pyrimidine compounds that inhibit anaplastic lymphoma kinase” (Amgen Inc., priority 2010, dated 2014)
